Experimental data taken from ChEMBL document CHEMBL3862033 (J Med Chem, 2016).

Experiments:
[1] = molecular target: T1, 5-hydroxytryptamine receptor 1A (Homo sapiens) (UniProt P08908); experiment: Displacement of [3H]WAY100635 from human 5-HT1AR expressed in CHO cell membranes at 10 uM incubated for 90 mins under dark condition by microbeta scintillation counting method relative to control
T1 sequence (whole entry): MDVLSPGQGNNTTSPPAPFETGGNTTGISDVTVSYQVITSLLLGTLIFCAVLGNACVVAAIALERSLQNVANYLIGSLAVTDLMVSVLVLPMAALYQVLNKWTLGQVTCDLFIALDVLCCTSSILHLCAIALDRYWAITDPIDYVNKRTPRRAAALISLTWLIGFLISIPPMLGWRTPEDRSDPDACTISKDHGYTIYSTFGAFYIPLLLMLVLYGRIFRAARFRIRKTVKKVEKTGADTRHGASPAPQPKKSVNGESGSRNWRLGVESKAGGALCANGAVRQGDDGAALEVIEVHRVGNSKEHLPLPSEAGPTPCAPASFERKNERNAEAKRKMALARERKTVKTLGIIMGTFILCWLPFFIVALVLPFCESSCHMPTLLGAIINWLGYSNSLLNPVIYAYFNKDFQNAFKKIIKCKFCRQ

[2] = molecular target: 5-hydroxytryptamine receptor 1D (Homo sapiens) (UniProt P28221); experiment: Displacement of [3H]5-CT from human 5-HT1D receptor expressed in HEK-T cell membranes at 10 uM incubated for 90 mins under dark condition by microbeta scintillation counting method relative to control
Chain of 5-hydroxytryptamine receptor 1D (Homo sapiens) (P28221 whole entry): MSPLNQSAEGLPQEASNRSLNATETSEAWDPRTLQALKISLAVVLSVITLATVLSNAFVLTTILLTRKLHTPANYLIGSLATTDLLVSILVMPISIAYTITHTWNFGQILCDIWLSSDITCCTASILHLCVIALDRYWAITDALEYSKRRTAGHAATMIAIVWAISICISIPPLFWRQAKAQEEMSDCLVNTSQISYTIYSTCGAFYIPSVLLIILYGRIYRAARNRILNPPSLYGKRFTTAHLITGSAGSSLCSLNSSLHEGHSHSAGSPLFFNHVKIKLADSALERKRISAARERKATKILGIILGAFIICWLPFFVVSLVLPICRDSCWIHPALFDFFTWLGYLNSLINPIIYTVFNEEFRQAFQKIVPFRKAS

[3] = molecular target: 5-hydroxytryptamine receptor 1E (Homo sapiens) (UniProt P28566); experiment: Displacement of [3H]5-HT from human 5-HT1E receptor expressed in HEK cell membranes at 10 uM incubated for 90 mins under dark condition by microbeta scintillation counting method relative to control; conditions: HEK293
Chain of 5-hydroxytryptamine receptor 1E (Homo sapiens) (P28566 whole entry): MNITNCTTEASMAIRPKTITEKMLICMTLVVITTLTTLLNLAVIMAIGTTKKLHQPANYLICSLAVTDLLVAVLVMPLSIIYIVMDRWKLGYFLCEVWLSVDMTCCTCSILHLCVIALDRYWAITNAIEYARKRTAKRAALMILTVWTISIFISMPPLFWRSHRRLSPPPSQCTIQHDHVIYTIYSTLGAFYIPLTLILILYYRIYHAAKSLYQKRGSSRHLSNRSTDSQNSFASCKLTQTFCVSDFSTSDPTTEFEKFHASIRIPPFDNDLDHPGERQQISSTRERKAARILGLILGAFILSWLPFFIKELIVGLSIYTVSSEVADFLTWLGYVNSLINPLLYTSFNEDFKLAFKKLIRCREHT

[4] = molecular target: 5-hydroxytryptamine receptor 4 (Homo sapiens) (UniProt Q13639); experiment: Displacement of [3H]GR113808 from human 5-HT4 receptor at 10 uM incubated for 90 mins under dark condition by microbeta scintillation counting method relative to control
Chain of 5-hydroxytryptamine receptor 4 (Homo sapiens) (Q13639 whole entry): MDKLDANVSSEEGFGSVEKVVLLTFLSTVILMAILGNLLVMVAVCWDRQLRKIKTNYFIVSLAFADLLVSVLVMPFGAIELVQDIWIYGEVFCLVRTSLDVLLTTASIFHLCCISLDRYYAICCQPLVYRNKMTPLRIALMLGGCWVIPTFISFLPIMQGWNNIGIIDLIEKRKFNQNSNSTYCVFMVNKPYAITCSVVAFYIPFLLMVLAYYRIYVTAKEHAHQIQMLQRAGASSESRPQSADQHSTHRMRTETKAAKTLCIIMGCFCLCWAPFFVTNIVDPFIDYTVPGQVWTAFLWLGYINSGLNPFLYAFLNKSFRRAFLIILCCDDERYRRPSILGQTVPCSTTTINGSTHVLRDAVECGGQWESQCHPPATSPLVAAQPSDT

[5] = molecular target: 5-hydroxytryptamine receptor 6 (Homo sapiens) (UniProt P50406); experiment: Displacement of [3H]LSD from human 5-HT6 receptor expressed in HEK cell membranes at 10 uM incubated for 90 mins under dark condition by microbeta scintillation counting method relative to control; conditions: HEK293
Chain of 5-hydroxytryptamine receptor 6 (Homo sapiens) (P50406 whole entry): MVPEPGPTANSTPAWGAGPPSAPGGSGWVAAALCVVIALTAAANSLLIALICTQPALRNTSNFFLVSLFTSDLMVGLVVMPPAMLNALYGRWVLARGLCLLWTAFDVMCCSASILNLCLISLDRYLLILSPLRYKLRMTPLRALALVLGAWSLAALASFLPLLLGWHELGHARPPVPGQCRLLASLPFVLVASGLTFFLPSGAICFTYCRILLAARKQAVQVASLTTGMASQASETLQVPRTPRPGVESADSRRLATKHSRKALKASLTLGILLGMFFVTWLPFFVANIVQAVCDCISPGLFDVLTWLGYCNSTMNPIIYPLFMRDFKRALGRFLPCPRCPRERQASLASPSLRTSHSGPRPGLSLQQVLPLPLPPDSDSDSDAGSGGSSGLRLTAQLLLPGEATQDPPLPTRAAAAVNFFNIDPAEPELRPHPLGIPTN

[6] = molecular target: 5-hydroxytryptamine receptor 7 (Homo sapiens) (UniProt P34969); experiment: Displacement of [3H]LSD from human 5-HT7A receptor expressed in HEK cell membranes at 10 uM incubated for 90 mins under dark condition by microbeta scintillation counting method relative to control; conditions: HEK293
Chain of 5-hydroxytryptamine receptor 7 (Homo sapiens) (P34969 whole entry): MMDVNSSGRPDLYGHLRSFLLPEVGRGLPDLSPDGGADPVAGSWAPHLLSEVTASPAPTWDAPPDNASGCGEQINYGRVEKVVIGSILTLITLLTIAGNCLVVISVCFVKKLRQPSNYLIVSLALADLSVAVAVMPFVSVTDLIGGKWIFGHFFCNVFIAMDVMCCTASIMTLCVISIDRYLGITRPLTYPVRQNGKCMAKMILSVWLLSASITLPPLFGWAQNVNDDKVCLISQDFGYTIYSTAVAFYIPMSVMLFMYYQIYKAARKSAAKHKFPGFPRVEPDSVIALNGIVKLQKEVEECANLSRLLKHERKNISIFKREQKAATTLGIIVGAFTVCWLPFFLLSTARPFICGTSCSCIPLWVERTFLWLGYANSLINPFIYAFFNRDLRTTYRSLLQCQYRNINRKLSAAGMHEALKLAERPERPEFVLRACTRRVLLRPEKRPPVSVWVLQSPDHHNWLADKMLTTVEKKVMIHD

[7] = molecular target: T2, 5-hydroxytryptamine receptor 3A (Homo sapiens) (UniProt P46098); experiment: Displacement of [3H]GR65630 from human 5-HT3 receptor expressed in HEK-T cell membranes at 10 uM incubated for 90 mins under dark condition by microbeta scintillation counting method relative to control
T2 sequence (whole entry): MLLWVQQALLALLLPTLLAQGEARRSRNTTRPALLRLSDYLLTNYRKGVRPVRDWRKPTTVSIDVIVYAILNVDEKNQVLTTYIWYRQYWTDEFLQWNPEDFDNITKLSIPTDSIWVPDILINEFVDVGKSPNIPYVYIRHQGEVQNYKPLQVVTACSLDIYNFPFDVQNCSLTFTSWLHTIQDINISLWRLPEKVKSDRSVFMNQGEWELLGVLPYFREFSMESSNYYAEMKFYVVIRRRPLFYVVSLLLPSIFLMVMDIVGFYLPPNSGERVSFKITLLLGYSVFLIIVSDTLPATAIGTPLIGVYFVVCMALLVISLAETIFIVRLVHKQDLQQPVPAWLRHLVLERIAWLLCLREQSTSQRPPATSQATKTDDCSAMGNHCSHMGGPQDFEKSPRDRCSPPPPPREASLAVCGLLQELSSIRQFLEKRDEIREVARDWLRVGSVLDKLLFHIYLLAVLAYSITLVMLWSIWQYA

[8] = molecular target: T3, 5-hydroxytryptamine receptor 2B (Homo sapiens, UniProt P41595); experiment: biochemical; type: cell-based, HEK293
T3 sequence (P41595 whole entry): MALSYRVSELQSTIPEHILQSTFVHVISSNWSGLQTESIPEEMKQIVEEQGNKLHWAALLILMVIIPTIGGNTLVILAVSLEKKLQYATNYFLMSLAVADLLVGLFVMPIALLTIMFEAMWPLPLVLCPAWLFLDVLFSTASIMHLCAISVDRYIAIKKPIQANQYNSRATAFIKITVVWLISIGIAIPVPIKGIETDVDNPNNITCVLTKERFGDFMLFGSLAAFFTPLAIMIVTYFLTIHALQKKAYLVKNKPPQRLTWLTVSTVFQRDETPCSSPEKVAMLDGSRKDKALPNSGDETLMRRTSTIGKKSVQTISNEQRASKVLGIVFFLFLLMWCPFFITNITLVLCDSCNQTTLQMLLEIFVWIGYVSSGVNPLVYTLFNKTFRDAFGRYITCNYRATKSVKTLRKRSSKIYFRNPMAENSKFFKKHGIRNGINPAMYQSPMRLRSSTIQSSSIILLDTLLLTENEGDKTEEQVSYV

[9] = molecular target: T4, 5-hydroxytryptamine receptor 2C (Homo sapiens) (UniProt P28335); experiment: Displacement of [3H]mesulergine from human 5-HT2CR expressed in Flp-In HEK cell membranes at 10 uM incubated for 90 mins under dark condition by microbeta scintillation counting method relative to control; conditions: HEK293
T4 sequence (whole entry): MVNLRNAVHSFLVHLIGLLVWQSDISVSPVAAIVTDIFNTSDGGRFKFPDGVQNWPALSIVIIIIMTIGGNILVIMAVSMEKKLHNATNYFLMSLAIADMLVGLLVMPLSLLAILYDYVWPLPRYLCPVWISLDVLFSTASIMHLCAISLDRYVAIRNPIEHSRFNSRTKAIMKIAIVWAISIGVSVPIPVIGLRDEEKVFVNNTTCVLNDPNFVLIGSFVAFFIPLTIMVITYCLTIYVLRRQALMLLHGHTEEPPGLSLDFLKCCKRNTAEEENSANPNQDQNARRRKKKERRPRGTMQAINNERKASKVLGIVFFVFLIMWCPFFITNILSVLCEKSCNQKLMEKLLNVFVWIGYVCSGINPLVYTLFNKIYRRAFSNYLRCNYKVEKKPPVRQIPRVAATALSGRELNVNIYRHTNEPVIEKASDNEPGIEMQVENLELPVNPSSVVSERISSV

Adenosine receptor A1 = molecular target: T5, Adenosine receptor A1 (Homo sapiens, UniProt P30542); experiment: Displacement of [3H]N6-phenylisopropyladenosine from recombinant human A1AR expressed in CHO cell membranes after 60 mins by liquid scintillation counting method
T5 sequence (P30542 whole entry): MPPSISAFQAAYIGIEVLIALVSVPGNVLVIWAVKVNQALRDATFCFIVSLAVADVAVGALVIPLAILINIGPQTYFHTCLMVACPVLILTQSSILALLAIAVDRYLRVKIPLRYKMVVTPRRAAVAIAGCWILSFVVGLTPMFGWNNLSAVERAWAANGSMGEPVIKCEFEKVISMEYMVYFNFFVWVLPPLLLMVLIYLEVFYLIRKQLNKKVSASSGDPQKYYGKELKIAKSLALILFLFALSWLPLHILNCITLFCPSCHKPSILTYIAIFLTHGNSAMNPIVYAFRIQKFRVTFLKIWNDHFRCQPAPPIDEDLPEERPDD

[10] = molecular target: T3, 5-hydroxytryptamine receptor 2B; type: functional, cell-based, HEK293
[11] = molecular target: T6, 5-hydroxytryptamine receptor 2C (Homo sapiens, UniProt P28335); experiment: Antagonist activity at human 5-HT2CR expressed in Flp-In HEK cells assessed as inhibition of serotonin induced calcium mobilization preincubated for 5 to 10 mins followed 5-Ht addition by Fluo-4 dye based FLIPR assay; type: functional, cell-based, HEK293
T6 sequence (P28335 whole entry): T4 sequence (whole entry)

[12] = molecular target: 5-hydroxytryptamine receptor 2A (Homo sapiens, UniProt P28223); experiment: Displacement of [3H]ketanserin from human 5-HT2A receptor expressed in HEK-T cell membranes incubated for 90 mins under dark condition by microbeta scintillation counting method
Chain of 5-hydroxytryptamine receptor 2A (P28223 whole entry): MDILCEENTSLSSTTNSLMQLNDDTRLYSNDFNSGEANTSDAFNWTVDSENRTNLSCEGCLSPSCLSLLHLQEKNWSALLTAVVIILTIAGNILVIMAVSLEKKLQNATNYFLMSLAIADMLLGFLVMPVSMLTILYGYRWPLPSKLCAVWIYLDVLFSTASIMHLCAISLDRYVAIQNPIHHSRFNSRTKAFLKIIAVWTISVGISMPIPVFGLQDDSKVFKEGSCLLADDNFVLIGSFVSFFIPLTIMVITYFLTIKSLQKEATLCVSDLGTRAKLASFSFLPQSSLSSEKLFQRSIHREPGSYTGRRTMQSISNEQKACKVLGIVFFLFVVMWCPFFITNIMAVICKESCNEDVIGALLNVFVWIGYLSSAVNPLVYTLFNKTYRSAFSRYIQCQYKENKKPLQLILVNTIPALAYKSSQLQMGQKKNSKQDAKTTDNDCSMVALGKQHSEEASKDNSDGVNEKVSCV

[13] = molecular target: T3, 5-hydroxytryptamine receptor 2B; conditions: HEK293, at 10 µM

SMILES: CCOC(=O)[C@@]12C[C@@H]1[C@@H](n1cnc3c(NC(C4CC4)C4CC4)nc(Cl)nc31)[C@H](O)[C@@H]2O
- inhibition [1]: < 50%
- inhibition [2]: < 50%
- inhibition [3]: < 50%
- inhibition [4]: < 50%
- inhibition [5]: < 50%
- inhibition [6]: < 50%
- inhibition [7]: < 50%
- Ki [8]: 15 nM
- inhibition [9]: > 50%
- Ki (Adenosine receptor A1): 360 nM
- Ki [10]: 1.8 nM
- Ki [11]: 3.9 nM
- Ki [12]: > 10000 nM
- inhibition [13]: > 50%

SMILES: COC(=O)[C@@]12C[C@@H]1[C@@H](n1cnc3c(NC(C4CC4)C4CC4)nc(Cl)nc31)[C@H](O)[C@@H]2O
- inhibition [1]: < 50%
- inhibition [2]: < 50%
- inhibition [3]: < 50%
- inhibition [4]: < 50%
- inhibition [5]: < 50%
- inhibition [6]: < 50%
- inhibition [7]: < 50%
- Ki [8]: 19 nM
- inhibition [9]: > 50%
- Ki (Adenosine receptor A1): 437 nM
- Ki [10]: 3.2 nM
- Ki [11]: 4.1 nM
- Ki [12]: > 10000 nM
- inhibition [13]: > 50%

SMILES: OC[C@@]12C[C@@H]1[C@@H](n1cnc3c(NC(C4CC4)C4CC4)nc(Cl)nc31)[C@H](O)[C@@H]2O
- inhibition [1]: < 50%
- inhibition [2]: < 50%
- inhibition [3]: < 50%
- inhibition [4]: < 50%
- inhibition [5]: < 50%
- inhibition [6]: < 50%
- inhibition [7]: < 50%
- inhibition [9]: > 50%
- Ki (Adenosine receptor A1): 39 nM
- Ki [11]: 337 nM
- Ki [12]: > 10000 nM

SMILES: CNC(=O)[C@@]12C[C@@H]1[C@@H](n1cnc3c(NC(C4CC4)C4CC4)nc(Cl)nc31)[C@H](O)[C@@H]2O
- inhibition [1]: < 50%
- inhibition [2]: < 50%
- inhibition [3]: < 50%
- inhibition [4]: < 50%
- inhibition [5]: < 50%
- inhibition [6]: < 50%
- inhibition [7]: < 50%
- Ki [8]: 23 nM
- inhibition [9]: > 50%
- Ki (Adenosine receptor A1): 110 nM
- Ki [10]: 4.4 nM
- Ki [11]: 752 nM
- Ki [12]: > 10000 nM
- inhibition [13]: > 50%
